Assay [1] concerns the target T1, hSSTR2 (Homo sapiens (Human), UniProt P30874). Description: Intracellular calcium mobilization assay (FLIPR Calcium 4), hSSTR2.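 As to all read-outs here: agonist activity read as intracellular calcium rise in cells expressing human SSTR2, loaded with a calcium-sensitive dye for 60 min at 37 °C, measured by FLIPR.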 Type of assay: cell-based. The conditions noted are these: for Emax: read-out: hSSTR2 % Emax ± SEM.
In assay [2] the target is T2, hDRD2 (Homo sapiens (Human), UniProt P14416). Description: cell-based. The conditions noted are these: for Emax: read-out: hDRD2 % Emax ± SEM.
Method: The ability of select compounds according to the present invention to activate hSSTR2 and hDRD2 was determined by the intracellular calcium mobilization assay using FLIPR Calcium 4 assay kit (Molecular Devices).
Cells expressing hSSTR2 or hDRD2 were plated in 384-well microplates in tissue culture media and incubated for 16-24 hours at 37° C. in a humidified atmosphere with 5% CO2. Medium was replaced by loading buffer containing Hank's buffered saline, 20 mM HEPES, 2.5 mM probenecid and Calcium 4 dye, and the plates were incubated at 37° C. for 60 minutes.
Assay [3] deals with pituitary tumor cells of acromegalic patients presenting with macroadenoma. The assay is described as follows: Human pituitary adenoma cell growth hormone release assay. In kind it is cell-based. The conditions noted are these: 18 hours incubation, FIG. 5. How it is done:
FIG. 1 is a graph showing the Growth hormone suppressing activity of Compound 4 (see Table I hereinbelow for its chemical name and its corresponding structural representation) on pituitary tumor cells of acromegalic patients presenting with macroadenoma. Various concentrations of Compound 4 were added to the medium and the cells were incubated for 18 hours before measurement of Growth hormone levels in the medium using the AlphaLISA Growth Hormone Immunoassay Research kit (PerkinElmer).
Various concentrations of Compounds 4 and 5 were added to the medium and the cells were incubated for 18 hours before measurement of Growth hormone levels in the medium using the AlphaLISA Growth Hormone Immunoassay Research kit (PerkinElmer).
Acromegalic patients presenting with macroadenoma underwent transsphenoidal surgery and a portion of each tumor obtained at surgery was dissociated by enzymatic and mechanical methods. The cells were cultured in DMEM medium supplemented with 10% FBS and antibiotics for 3 days. The cells were then plated in multi-well tissue culture dishes coated with extracellular matrix from bovine endothelial corneal cells at a density of 3-5×10^4 cells/well in DMEM supplemented with 10% FBS and antibiotics. After 2-3 days of culture, the medium was changed to DMEM supplemented with 1% FBS, antibiotics and 1% ITS (insulin, transferrin and selenium).

Assay [4] has as its target hSSTR3 (Homo sapiens (Human), UniProt P32745). Description: Somatostatin receptor radioligand binding assay, hSSTR3. As to conditions: CHO-K1 membranes, [125I-Tyr11]-SRIF-14; read-out: hSSTR3 Ki (nM) ± SEM. The method, then: (§1) The affinities of a test compound for the human somatostatin receptors were determined by radioligand binding assays in CHO-K1 cells stably transfected with each of the human somatostatin receptor subtypes, hSSTR1-5. […] Clonal cell lines stably expressing each of the somatostatin receptors were obtained by transfection into CHO-K1 cells (ATCC) and subsequently selected with culture media containing 0.8 mg/mL of G418 (Life Technologies).
(§2) Membranes for in vitro receptor binding assays were obtained by the following procedures. CHO-K1 cells expressing one of the somatostatin receptors were homogenized in ice-cold buffer with 10 mM Tris-HCl, 5 mM EDTA, 3 mM EGTA, 1 mM phenylmethylsuphonyl fluoride, pH 7.6, using Polytron PT10-35GT (Kinematica) at 18,000 rpm for 30 seconds and centrifuged at 500×g for 10 minutes. The supernatant containing the plasma membranes was centrifuged at 100,000×g for 30 minutes and the pellet was resuspended in buffer containing 20 mM glycine-glycine, 1 mM MgCl2, 250 mM sucrose, pH 7.2, for storage at −80° C.
(§3) For the hSSTR3 and 4 assays, membranes and various concentrations of test compounds were incubated in 96-well plates for 60 minutes at 25° C. with 0.05 nM [^125I-Tyr^11]-SRIF-14 (PerkinElmer Life Science) in 50 mM HEPES, 0.2% BSA, 5 mM MgCl2, 200 KIU/mL trasylol, 0.02 mg/mL bacitracin, and 0.02 mg/mL phenylmethylsuphonyl fluoride, pH 7.5.
(§4) The incubations were terminated by rapid filtration through GF/C glass microfiber filter plates (pre-wet with 0.3% polyethyleneimine and 0.1% BSA) using a 96-well cell harvester (Brandel). Plates were washed six times with 1 mL/well aliquots of ice-cold buffer containing 50 mM Tris buffer, pH 7.7. Specific binding was defined as the total radioligand bound minus the bound in the presence of 1000 nM SRIF-14.

Assay [5] has as its target hSSTR4 (Homo sapiens (Human), UniProt P31391). The assay is described as follows: Somatostatin receptor radioligand binding assay, hSSTR4. The conditions noted are these: CHO-K1 membranes, [125I-Tyr11]-SRIF-14; read-out: hSSTR4 Ki (nM) ± SEM. The method, then: as §1, §2, §3, §4
The target in assay [6] is T1, hSSTR2. The assay is described as follows: Somatostatin receptor radioligand binding assay, hSSTR2. As to conditions: CHO-K1 membranes, [125I-Tyr]-seglitide; read-out: hSSTR2 Ki (nM) ± SEM.
Method: The affinities of a test compound for the human somatostatin receptors were determined by radioligand binding assays in CHO-K1 cells stably transfected with each of the human somatostatin receptor subtypes, hSSTR1-5. The cDNA coding sequences of hSSTR1 (GenBank accession No. NM—001049.1), hSSTR2 (GenBank accession No. XM—012697.1), hSSTR3 (GenBank accession No. XM—009963.1), hSSTR4 (GenBank accession No. NM—001052.1), and hSSTR5 (GenBank accession No. XM—012565.1) were subcloned into the mammalian expression vector pcDNA3.1 (Life Technologies). Clonal cell lines stably expressing each of the somatostatin receptors were obtained by transfection into CHO-K1 cells (ATCC) and subsequently selected with culture media containing 0.8 mg/mL of G418 (Life Technologies).
Membranes for in vitro receptor binding assays were obtained by the following procedures. […] The supernatant containing the plasma membranes was centrifuged at 100,000×g for 30 minutes and the pellet was resuspended in buffer containing 20 mM glycine-glycine, 1 mM MgCl2, 250 mM sucrose, pH 7.2, for storage at −80° C. […]
Assay [7] concerns the target T2, hDRD2. Type of assay: binding. As to conditions: CHO-K1 membranes, [3H]-spiperone; read-out: hDRD2 Ki (nM) ± SEM.

Read-outs that look alike come from different tables or passages of the source. Numbered stars: 1 amine (or outer) side, 2 acyl side, 3 side chain; on linkers, the order of the positions; unused ones are H or OH. Bridge positions count the residues as written; N and C are the ends. Square brackets hold non-standard residues; d marks the D form. Peptide text beside a SMILES is read from it. * marks the point of attachment. X1 = CN1C[C@H](CSCCN(CCSC[C@@H]2C[C@@H]3c4cccc5[nH]cc(c45)C[C@H]3N(C)C2)[C@H](CCCCN[*:2])C(=O)[*:1])C[C@@H]2c3cccc4[nH]cc(c34)C[C@H]21; X2 = CN1C[C@H](CSCC(=O)*)C[C@@H]2c3cccc4[nH]cc(c34)C[C@H]21; dDab = NCC[C@@H](N)C(=O)O

T1 sequence (P30874 whole entry): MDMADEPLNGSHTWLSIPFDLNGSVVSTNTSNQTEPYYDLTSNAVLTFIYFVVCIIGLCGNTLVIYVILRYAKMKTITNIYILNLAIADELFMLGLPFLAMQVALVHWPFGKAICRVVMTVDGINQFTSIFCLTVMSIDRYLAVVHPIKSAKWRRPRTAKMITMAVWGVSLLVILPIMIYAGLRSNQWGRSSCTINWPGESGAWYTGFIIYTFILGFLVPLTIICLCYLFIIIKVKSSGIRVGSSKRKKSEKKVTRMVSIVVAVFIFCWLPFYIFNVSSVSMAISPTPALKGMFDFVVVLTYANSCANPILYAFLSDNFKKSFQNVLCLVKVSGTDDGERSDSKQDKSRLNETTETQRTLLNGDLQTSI
Sequence of hSSTR3 (P32745 whole entry): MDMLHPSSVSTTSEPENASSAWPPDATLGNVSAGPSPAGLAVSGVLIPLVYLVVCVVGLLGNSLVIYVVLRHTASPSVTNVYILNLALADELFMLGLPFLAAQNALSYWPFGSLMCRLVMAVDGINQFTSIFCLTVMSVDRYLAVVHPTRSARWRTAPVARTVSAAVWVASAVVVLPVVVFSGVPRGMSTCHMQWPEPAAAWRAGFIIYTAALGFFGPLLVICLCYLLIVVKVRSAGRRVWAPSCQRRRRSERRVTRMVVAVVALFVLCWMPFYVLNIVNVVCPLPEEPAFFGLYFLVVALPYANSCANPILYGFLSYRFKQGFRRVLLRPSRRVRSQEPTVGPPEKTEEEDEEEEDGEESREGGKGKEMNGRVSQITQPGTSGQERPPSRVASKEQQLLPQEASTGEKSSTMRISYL
Sequence of hSSTR4 (P31391 whole entry): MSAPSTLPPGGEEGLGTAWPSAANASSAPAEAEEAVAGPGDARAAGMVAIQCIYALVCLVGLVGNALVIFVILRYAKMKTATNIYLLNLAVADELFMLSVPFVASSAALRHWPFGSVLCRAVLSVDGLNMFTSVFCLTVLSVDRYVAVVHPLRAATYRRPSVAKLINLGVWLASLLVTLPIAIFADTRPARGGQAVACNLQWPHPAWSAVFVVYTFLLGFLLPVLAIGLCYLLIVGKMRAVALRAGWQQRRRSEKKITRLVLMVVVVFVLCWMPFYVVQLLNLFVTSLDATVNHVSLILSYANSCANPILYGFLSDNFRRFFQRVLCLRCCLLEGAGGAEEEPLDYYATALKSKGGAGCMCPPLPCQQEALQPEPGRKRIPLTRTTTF

Consider `C[C@@H](O)[C@@H]1NC(=O)[C@H](CCCCN)NC(=O)[C@@H](Cc2c[nH]c3ccccc23)NC(=O)[C@H](Cc2ccncc2)NC(=O)[C@H](Cc2ccccc2)NC(=O)[C@H](CCCNC(=N)N)NC(=O)[C@H](NC[C@H](Cc2ccc(O)cc2)NC(=O)CSC[C@@H]2C[C@@H]3c4cccc5[nH]cc(c45)C[C@H]3N(C)C2)CCCCNC(=O)[C@H](Cc2ccccc2)NC1=O` [Compound 4, Dop1-Tyr-psi(CH2NH)-cyclo(DLys-Arg-Phe-4Pal-DTrp-Lys-Thr-Phe)], for which, in assay [1], the EC50 is 7.6 ± 1.5 nM and the maximal response (Emax) came to 100 ± 2.9%. In assay [1] (calcium mobilization), the “improvement in EC50 and/or % Emax over Reference Compound B” value is “statistically significant improvement”. In assay [2], the EC50 came to 20.1 ± 2.6 nM. The “Growth hormone suppressing activity compared to parent somatostatin analogs” value in assay [3] is reported as “enhanced Growth hormone suppressing activity”.
`C[C@@H](O)[C@@H]1NC(=O)[C@H](CCCCN)NC(=O)[C@@H](Cc2c[nH]c3ccccc23)NC(=O)[C@H](Cc2ccccc2)NC(=O)[C@H](Cc2ccccc2)NC(=O)[C@H](CCCNC(=N)N)NC(=O)[C@H](NCCS(=O)(=O)C[C@@H]2C[C@@H]3c4cccc5[nH]cc(c45)C[C@H]3N(C)C2)CCCCNC(=O)[C@H](Cc2ccc(F)cc2)NC1=O` [Compound 10, Dop1(SO2)-psi(CH2NH)-cyclo(DLys-Arg-Phe-Phe-DTrp-Lys-Thr-4FPhe)]: the Ki in assay [4] was determined as 27.9 nM; in assay [5], 20.6 nM. The Emax in assay [1] was found to be 84.8 ± 13%.
As for `C[C@@H](O)[C@@H]1NC(=O)[C@H](CCCCN)NC(=O)[C@@H](Cc2c[nH]c3ccccc23)NC(=O)[C@H](Cc2cccnc2)NC(=O)[C@H](Cc2ccccc2)NC(=O)[C@H](CCCNC(=N)N)NC(=O)[C@H](NC[C@H](Cc2ccc(O)cc2)NC(=O)CSC[C@@H]2C[C@@H]3c4cccc5[nH]cc(c45)C[C@H]3N(C)C2)CCCCNC(=O)[C@H](Cc2ccccc2)NC1=O` [Compound 38, Dop1-Tyr-psi(CH2NH)-cyclo(DLys-Arg-Phe-3Pal-DTrp-Lys-Thr-Phe)], the Ki in assay [6] is 0.76 ± 0.23 nM. Moreover, the 50% effective concentration (EC50) in assay [1] (calcium mobilization, read-out: hSSTR2 EC50 (nM) ± SEM) is 24.9 ± 7.7 nM; in assay [2] it was 7.5 ± 0.1 nM. In addition, the maximum response (Emax) in assay [1] (maximal effect in percentage of the maximal effect of SRIF-14) came out at 83.5 ± 4.4%.
With `C[C@@H](O)[C@@H]1NC(=O)[C@H](CCCCN)NC(=O)[C@@H](Cc2c[nH]c3ccccc23)NC(=O)[C@H](Cc2ccccc2)NC(=O)[C@H](Cc2ccccc2)NC(=O)[C@H](CCCNC(=N)N)NC(=O)[C@H](N(CCSC[C@@H]2C[C@@H]3c4cccc5[nH]cc(c45)C[C@H]3N(C)C2)CCSC[C@@H]2C[C@@H]3c4cccc5[nH]cc(c45)C[C@H]3N(C)C2)CCCCNC(=O)[C@H](Cc2ccccc2)NC1=O` [Compound 40, bis[Dop1-psi(CH2N)]-cyclo(DLys-Arg-Phe-Phe-DTrp-Lys-Thr-Phe)] (RFF[dW]KTF; linker N-C via X1), the Ki in assay [7] amounted to 445 ± 143 nM. In addition, the maximum response (Emax) in assay [1] is 95 ± 6.1%.
Regarding `C[C@@H](O)[C@@H]1NC(=O)[C@H](CCCCN)NC(=O)[C@@H](Cc2c[nH]c3ccccc23)NC(=O)[C@H](Cc2ccccc2)NC(=O)[C@H](Cc2ccccc2)NC(=O)[C@H](CCCNC(=N)N)NC(=O)[C@H](NC[C@H](Cc2ccc(O)cc2)NC(=O)CSC[C@@H]2C[C@@H]3c4cccc5[nH]cc(c45)C[C@H]3N(C)C2)CCCCNC(=O)[C@H](Cc2ccc(F)cc2)NC1=O` [Compound 5, Dop1-Tyr-psi(CH2NH)-cyclo(DLys-Arg-Phe-Phe-DTrp-Lys-Thr-4FPhe)], in assay [1], the concentration for a half-maximal effect (EC50) was determined as 14.6 ± 1.9 nM and the Emax worked out at 97 ± 3.6%. Also, in assay [1] (calcium mobilization), the “improvement in EC50 and/or % Emax over Reference Compound B” value was “statistically significant improvement”. Besides, the midpoint of the response in assay [2], the EC50, lay at 30.1 ± 5.3 nM. The “Growth hormone suppressing activity compared to parent somatostatin analogs” value in assay [3] is “enhanced Growth hormone suppressing activity”.
Take `C[C@@H](O)[C@@H]1NC(=O)[C@H](CCCCN)NC(=O)[C@@H](Cc2c[nH]c3ccccc23)NC(=O)[C@H](Cc2ccccc2)NC(=O)[C@H](Cc2ccccc2)NC(=O)[C@H](CCCNC(=N)N)NC(=O)[C@H](NC(=O)[C@H](Cc2ccc(O)cc2)NC(=O)CSC[C@@H]2C[C@@H]3c4cccc5[nH]cc(c45)C[C@H]3N(C)C2)CCNC(=O)[C@H](Cc2ccccc2)NC1=O` [Reference Compound B, Dop1-Tyr-cyclo(DDab-Arg-Phe-Phe-DTrp-Lys-Thr-Phe), reference compound] (X2-Y[dDab]RFF[dW]KTF; lactam 2-C): the maximal response (Emax) in assay [1] came to 66.7 ± 5.8%; in assay [2], 92.8 ± 6.6%.
Take `C[C@@H](O)[C@@H]1NC(=O)[C@H](CCCCN)NC(=O)[C@@H](Cc2c[nH]c3ccccc23)NC(=O)[C@H](Cc2ccccc2)NC(=O)[C@H](Cc2ccccc2)NC(=O)[C@H](CCCNC(=N)N)NC(=O)[C@H](NC[C@H](Cc2ccc(O)cc2)NC(=O)CCN(C[C@@H]2C[C@@H]3c4cccc5[nH]cc(c45)C[C@H]3N(C)C2)S(C)(=O)=O)CCCCNC(=O)[C@H](Cc2ccc(F)cc2)NC1=O` [Compound 42, [N-(D-6-methyl-8β-ergolinylmethyl)-N-(methylsulfonyl)]-aminopropionyl-Tyr-psi(CH2NH)-cyclo(DLys-Arg-Phe-Phe-DTrp-Lys-Thr-4FPhe)]: the maximum response (Emax) was 78.6 ± 2.3% in assay [1] and 94.5 ± 0.3% in assay [2].
As for `C[C@@H](O)[C@@H]1NC(=O)[C@H](CCCCN)NC(=O)[C@@H](Cc2c[nH]c3ccccc23)NC(=O)[C@H](Cc2ccncc2)NC(=O)[C@H](Cc2ccccc2)NC(=O)[C@H](CCCNC(=N)N)NC(=O)[C@H](NCC[S@+]([O-])C[C@@H]2C[C@@H]3c4cccc5[nH]cc(c45)C[C@H]3N(C)C2)CCCCNC(=O)[C@H](Cc2ccc(O)cc2)NC1=O` [Compound 11, Dop1[(R)SO]-psi(CH2NH)-cyclo(DLys-Arg-Phe-4Pal-DTrp-Lys-Thr-Tyr)], the Ki was 30.9 ± 11.7 nM in assay [4] and 2.1 ± 0.4 nM in assay [5]. The maximal effect (Emax) in assay [1] was 92.3 ± 4.6%.
Consider `C[C@@H](O)[C@@H]1NC(=O)[C@H](CCCCN)NC(=O)[C@@H](Cc2c[nH]c3ccccc23)NC(=O)[C@H](Cc2ccncc2)NC(=O)[C@H](Cc2ccccc2)NC(=O)[C@H](CCCNC(=N)N)NC(=O)[C@H](NCC[S@@+]([O-])C[C@@H]2C[C@@H]3c4cccc5[nH]cc(c45)C[C@H]3N(C)C2)CCCCNC(=O)[C@H](Cc2ccc(O)cc2)NC1=O` [Compound 12, Dop1[(S)SO]-psi(CH2NH)-cyclo(DLys-Arg-Phe-4Pal-DTrp-Lys-Thr-Tyr)], for which the inhibition constant (Ki) amounted to 143 ± 65.2 nM in assay [4] and 3.2 ± 0.7 nM in assay [5]. The Emax in assay [1] was found to be 90.9 ± 12.9%.

Values taken from patent US8952128B2, “Somatostatin-dopamine chimeric analogs” (priority 2012, dated 2015).
